This note sets out measurements from US20120020876A1, “HEDGEHOG PATHWAY INHIBITORS” (priority 2009, published 2012).

A short description of data set [1]: Gd-DTPA delivery by DCE-MRI. Format: in vivo, mouse. To be noted: 0.1 mmol/kg Gd-DTPA. How it is done:
Magnetic resonance imaging experiments were carried out on a Varian MRI system (Varian, Inc, Palo Alto, Calif., USA) equipped with a 9.4T horizontal bore cryo-cooled superconducting magnet of 210 mm bore and a gradient set of strength 40 G/cm, 120 μsec risetime and internal diameter 120 mm. The imaging probe used was a Varian Millipede of 40 mm internal diameter. Mice were anaesthetized with Hypnorm/Hypnovel. Anatomical images were obtained using coronal T2-weighted fast spin-echo (repetition time TR=2000 ms, effective echo time TE=25 ms, echo train length 8 echoes, 512×512 points, field of view 80×80 mm, slice thickness/gap 1.5/0.5 mm, 12-15 slices) with chemical shift-selective fat suppression and respiratory gating. All other images were matched to the slice positions and field of view of the anatomical images. […] DCE-MRI data were analyzed in software custom-written in MATLAB 7.4 (The Mathworks, Inc, Natick, Mass., USA) using the model of Tofts and Kermode to evaluate the pharmacokinetic parameters Ktrans and ve, and additionally calculating the area under the [gadolinium]-time curve over the first 60 seconds post-injection (IAUGC60), as recommended by a panel of experts for vascular-related studies in oncology.

Data set [2] can be described thus: Vascular labeling and drug diffusion: doxorubicin delivery by confocal microscopy. The data set is classed as in vivo, mouse. The note with it: in comparison to control tissues and transplanted tumors; i.v. with lectin. How it is done:
To assess the functional vasculature, biotin-conjugated Lycopersicon esculentum lectin (B1175-1 mg, Vector Laboratories) was resuspended in 425 μL PBS and mixed with 75 μL of 1 mg/mL Streptavidin-AlexaFluor 633 (S21375, Molecular Probes) (in sterile PBS). Prior to use, the lectin-avidin mixture was centrifuged 14,000 k on a microfuge for 10 minutes to remove any particulate. Fifteen minutes prior to euthanasia, 100 μl (0.4 mg total) of the conjugated lectin was administered as a slow intravenous infusion over 5 minutes, and the hemodynamics monitored closely to ensure that it was tolerated. For doxorubicin experiments, five minutes prior to euthanasia mice were also infused with a 20 mg/kg doxorubicin solution (D-1515.10 mg, in sterile saline, Sigma) over one minute.
While under terminal anesthesia, mice were perfused with 4% paraformaldehyde in PBS, pH 7.4. Perfused tissues were harvested, fixed overnight in 4% paraformaldehyde in PBS, pH 7.4 and transferred to 70% ethanol. Tissues were embedded in paraffin, sectioned, rehydrated, and counterstained with DAPI. The lectin labeling experiments were reproduced independently in a second laboratory (SRH, KI).
Mice were infused with 30 ml of 4% PFA pH 7.4 using a Harvard Apparatus PhD 2000 syringe pump at a rate of […]. […] Doxorubicin fluorescence was excited with a 488 nm laser, and emission was detected in a range from 520-620 nm. […]

As to `O=C([O-])CN(CCN(CC(=O)[O-])CC(=O)O)CCN(CC(=O)[O-])CC(=O)O.[Gd+3]` [Gd-DTPA, gadolinium-diethyltriaminepentaacetic acid], in data set [1], the “Gd-DTPA enhancement within KPC tumors” value is listed as “little or no enhancement within the tumor body”.
On to `COc1cccc2c1C(=O)c1c(O)c3c(c(O)c1C2=O)C[C@@](O)(C(=O)CO)C[C@@H]3O[C@H]1C[C@H](N)[C@H](O)[C@H](C)O1` [doxorubicin], for which the “doxorubicin delivery to KPC pancreatic tumors” value in data set [2] is “marked decrease in doxorubicin delivery”.
